According to patent US20230210984A1, “ADOPTIVE IMMUNOTHERAPY” (The Council of the Queensland Institute of Medical Research, priority 2019, published 2023):

What was measured:
Assay type in all cases: cell-based
SNU719 and C666.1 cells [1] = assay: Flow cytometry of Ki67 and active Caspase 3 after individual and dual treatment; conditions: dual treatment with HLA matched T cells vs individual treatment, 16 hours
Description: FIG. 11: Impact of dual combination of MEK1/2 inhibitor and HLA matched allogeneic EBV specific T cells. (A) Cell growth curve highlight the rate of cellular proliferation of SNU719 (upper panel) and C666.1 (lower panel) observed in the presence of HLA-matched EBV specific T cells (effector-to-target ratio of 25:1) and selumatinib (1 μM) individually and in combination, measured using Xcellegence. The effect of individual and dual combination on (B) cell proliferation based on Ki67 and (C) cell death based on active Caspase-3 of SNU719 expression (upper panel) and C666.1 (lower panel), performed using flow cytometry. The data are represented as the mean±SD from three independent experiments. P-values were calculated using one-way ANOVA: ns=not significant, *p<0.05, **p<0.01, ***p<0.001 and ****p<0.0001.
FIG. 15: Impact of dual combination of JQ1 inhibitor and HLA matched allogeneic EBV-specific T cells. The cell viability measured by MTS assay highlighting the impact of a HLA-matched EBV specific T cells at the effector-to-target ratio of 25:1 and JQ1 (2.5 μM) in suppressing cellular growth individually and in combination after 48 hrs of incubation with indicated (A) gastric (SNU719, YCCLE1 (upper panel)) and nasopharyngeal cancer cells (C17, C666.1 (lower panel)). (B) Cell growth curve highlight the rate of cellular proliferation of SNU719 (upper panel) and C666.1 (lower panel) observed in the presence of HLA-matched EBV specific T cells (effector-to-target ratio of 25:1) and JQ1 (2.5 μM) individually and in combination, measured using Xcellegence. The effect of individual and dual combination on (C) cell proliferation based on Ki67 and (D) cell death based on active Caspase-3 of SNU719 expression (upper panel) and C666.1 (lower panel), performed using flow cytometry. The data are represented as the mean±SD from three independent experiments. P-values were calculated using one-way ANOVA: ns=not significant, *p<0.05, **p<0.01, ***p<0.001 and ****p<0.0001.
Further, to validate the impact of the combination on the cell proliferation of the EBV-associated cancer cells, we challenged SNU719 and C666.1 cells with individual and dual combination using Xcellegence. […] We also performed phenotypic characterization, using flow cytometry, of SNU719 and C666.1 cells after 16 hours of individual and dual treatment in vitro.
Similarly, we targeted MYC-dependent cancer intrinsic pathway using JQ1 inhibitor by first determining the IC50 value of the inhibitor across nasopharyngeal and gastric cancer cell lines (with drug concertation ranging from 0.5 μM-10 μM). […]

SNU719 cells = assay: MTS cell viability, inhibitor combined with EBV-specific T cells (Example 2); conditions: combination with EBV-specific T cells (25:1) vs individual treatment, 48 hrs; AZD6244 0.5 μM, trematinib 1.0 μM, JQ1 5.0 μM
Description: Cell viability assay was performed using the CellTiter 96® AQueous one cell viability assay reagent (Promega, WI, USA) for three biological replicates per EBV-associated cancer cell lines in triplicate. Briefly, the cancer cells (target cells) were plated at a density of 5000 cells per well in an overall media volume of 200 μL on a 96-well tissue-culture plate (BD Falcon™). The effector AdE1-LMPpoly transfected T cells were freshly thawed in RPMI-1640 with 10% FCS and 120 IU/mL of recombinant IL-2 at 37° C. and 50% CO2. Post 24 hrs of plating and incubation at 37° C. and 50% CO2, the effector T cells were mixed to the target cells at a gradient ratio of effector to target (E:T) of 5:1-100:1. The exact number of T cells (To) used per E:T ratio (ET) was independently used as control alongside PBS treated target cells (Es) and sole media (M0). After 24 hrs of incubation at 37° C. and 50% CO2, MTS was added to each well (1:100 dilution in media) and was incubated for 1 hour following which the plate was centrifuged at 1,200×g at room temperature for 5 min and absorbance of the mixture at an optical density of 490 nm was measured via a microplate reader. The relative cell viability was calculated using the following formula: […]

SNU719 and C666.1 cells [2] = assay: MTS cell viability with HLA-mismatched versus HLA-matched T cells and inhibitors; conditions: for effect of HLA-matched vs HLA-mismatched T cells in presence of inhibitor: MEK1/2 inhibitors 1 μM, JQ1 2.5 μM, T cells 25:1; for cell viability: 48 hrs
Description: FIG. 12: Combination of MEK1/2 inhibitors with HLA mismatched allogeneic-specific T cells. […] The data are represented as the mean±SD from three independent experiments. P-values were calculated using one-way ANOVA: ns=not significant, *=p<0.05, **=p<0.01, ***=p<0.001 and ****=p<0.0001.
FIG. 16: Combination of JQ1 inhibitors with HLA mismatched all T cells. […] The data are represented as the mean±SD from three independent experiments. P-values were calculated using one-way ANOVA: ns=not significant, *=p<0.05, **=p<0.01, ***=p<0.001 and ****=p<0.0001.
Next, we wanted to determine the specificity of the combination and as such we challenged SNU719 and C666.1 cells with HLA-mismatched allogeneic T cells alongside MEK1/2 inhibitors (both selumetanib and trematinib), individually and in combination.
Next, we wanted to determine the specificity of the combination and as such we challenged SNU719 and C666.1 cells with HLA-mismatch allogeneic T cells alongside JQ1 inhibitor individually and in combination.

[3] = test system: C17, C666.1, SNU719 and YCCLE1 cells; assay: MTS cell viability, inhibitor combined with HLA matched allogeneic EBV-specific T cells (Example 3); conditions: combination with HLA matched EBV-specific T cells 25:1 vs individual treatment, 48 hrs; MEK1/2 inhibitors 1 μM, JQ1 2.5 μM
Description: The data are represented as the mean±SD from three independent experiments. P-values were calculated using one-way ANOVA: ns=not significant, *=p<0.05, **=p<0.01, ***=p<0.001 and ****=p<0.0001.
The data are represented as the mean±SD from three independent experiments.

[4] = combination with HLA-mismatch allogeneic T cells 25:1 vs DMSO treated control
[5] = combination with HLA-mismatch allogeneic T cells 25:1 vs inhibitor alone

Structure (SMILES)	cell death (Active Caspase 3 staining) (SNU719 and C666.1 cells [1])	cell proliferation (Ki67+ staining) (SNU719 and C666.1 cells [1])	cell viability of SNU719 (SNU719 cells)	effect of HLA-matched vs HLA-mismatched T cells in presence of inhibitor (SNU719 and C666.1 cells [2])	cell viability (SNU719 and C666.1 cells [2]; [4])	cell viability (SNU719 and C666.1 cells [2]; [5])	cell viability [3]
Cc1sc2c(c1C)C(c1ccc(Cl)cc1)=N[C@@H](CC(=O)OC(C)(C)C)c1nnc(C)n1-2 [JQ1]	significant cell death	significant loss of cell proliferation	significantly reduced	significantly amplified	significant reduction in cell viability	no significant reduction in cell viability	significantly reduced
Cn1cnc2c(F)c(Nc3ccc(Br)cc3Cl)c(C(=O)NOCCO)cc21 [selumetanib]	significant cell death	significant loss of cell proliferation	significantly reduced	significantly amplified	significant reduction in cell viability	no significant reduction in cell viability	significantly reduced
